The values that follow come from patent US6908942B2, “6-amino-2,2-dimethyl-3,4,6-trisubstituted benzopyran derivatives and their construction by parallel synthesis on solid-phase” (Korea Research Institute of Chemical Technology, priority 2002, dated 2005).

pIC50: −log10 of the molar value.

The assay has as its system lipid peroxidation induced by iron. As to the kind of experiment: Inhibitory effect on iron-induced lipid peroxidation in rat brain homogenate (MDA measurement, N-methyl-2-phenylindole, Bioxytech LPO-586 Kit). The format is biochemical. The conditions noted are these: FeCl2 400 μM, 30 min at 37° C., decrease of MDA vs DMSO control, absorption at 586 nm. The protocol: The inhibitory effect of the present compounds on lipid peroxidation induced by iron was evaluated as follows:
Rat brain was homogenized in Krebs buffer (15 mM HEPES, 10 mM glucose, 140 mM NaCl, 3.6 mM KCl, 1.5 mM CaCl2, 1.4 mM KH2PO4 and 0.7 mM MgCl, pH 7.4) and centrifuged at 12,000 rpm to obtain the supernatant serving as a raw material of lipid. To the brain homogenates, FeCl^2 was added to give a final concentration of 400 μM and allowed to stand for 30 min at 37° C. for promoting oxidation. Each of the compounds to be tested was added to give a concentration of 12.5 μM and a control group was solely added with dimethylsulfoxide (DMSO).
When iron is added to brain homogenates, oxidation is promoted to increase the amount of malondialdehyde (MDA) as lipid peroxidation product. Therefore, in this Example, the level of lipid peroxidation was evaluated according to MDA measurement method. In general MDA measurement, the test sample is reacted with TBA (2-thiobarbituric acid) and the absorbance at 530 nm was measured. However, since such process includes a boiling step, it is unsuitable for dealing with test samples in large quantity. Therefore, in this Example, N-methyl-2-phenylindole was used as a color developing reagent in place of TBA so as to avoid boiling step. […] The inhibitory effect on lipid peroxidation of test compounds was evaluated by calculating the decreased level of MDA in percentage based on the amount of MDA in the control group. For the test compounds showing more than 80% inhibitory effect, the concentration-lipid peroxidation inhibition curves were plotted with reference to the decrease rate of MDA amount based on the amount of MDA in the control group and their IC50 values was calculated through least linear regression analysis.
In addition, the representative antioxidants commercialized such as Promethazine, Trolox, Probucol and N-propyl gallate were examined in terms of 50% inhibition concentration (IC50) according to the above procedure and the results are shown in Table 4.

A word on the pIC50: it is the negative decadic logarithm of the IC50, by convention in mol/L. The low end stands for a large IC50, the high end for a small IC50. In turn, `CC1(C)Oc2ccc(NCc3ccccc3)cc2C(OCCc2ccccc2)C1OCc1cccc(F)c1` (centres unmarked) [Compound 5-308] showed a pIC50 of 5.32. As for `CC1(C)Oc2ccc(NCc3ccccc3)cc2C(OCCc2ccccc2)C1OCc1ccccc1Cl` (centres unmarked) [Compound 5-310], the figure is 5.96; as for `CCCCOC1c2cc(NC)ccc2OC(C)(C)C1OCc1ccccc1` (centres unmarked) [Compound 5-49], 5.55. `CCOC1c2cc(NCc3ccc(F)cc3)ccc2OC(C)(C)C1OCc1ccccc1` (centres unmarked) [Compound 5-465] had a pIC50 of 5.19.

With `CCCCOC1c2cc(NC)ccc2OC(C)(C)C1OC(=O)c1ccc(C)cc1` (centres unmarked) [Compound 5-1516], the pIC50 was 5.20.

Turning to `CNc1ccc2c(c1)C(OCCC1CCCCC1)C(OCc1cccc(F)c1)C(C)(C)O2` (centres unmarked) [Compound 5-100], the pIC50 was 5.41. Compound `CNc1ccc2c(c1)C(OCCC1CCCCC1)C(OCc1ccccc1)C(C)(C)O2` (centres unmarked) [Compound 5-97] had a pIC50 of 5.27. As for `Cc1ccc(COC2C(OCCc3ccccc3)c3cc(NCc4ccccc4)ccc3OC2(C)C)cc1` (centres unmarked) [Compound 5-312], the figure is 5.38. The compound `CCNc1ccc2c(c1)C(OCC)C(OC(=O)C1CCCCC1)C(C)(C)O2` (centres unmarked) [Compound 5-1563] gave a pIC50 of 5.69.

Consider `CCNc1ccc2c(c1)C(OCC)C(OC(=O)CC(C)(C)C)C(C)(C)O2` (centres unmarked) [Compound 5-1562], for which the pIC50 is 5.52. Consider `CC1(C)Oc2ccc(NCc3ccc(F)cc3)cc2C(OCc2ccccc2)C1OC(=O)c1ccc(F)cc1` (centres unmarked) [Compound 5-1808], for which the pIC50 was 5.40. The same measure for `C/C=C/COC1C(OCc2ccccc2)c2cc(NC)ccc2OC1(C)C` (centres unmarked) [Compound 5-78]: 5.94; for `CC(C)OC1c2cc(NCc3ccc(F)cc3)ccc2OC(C)(C)C1OCc1ccccc1Cl` (centres unmarked) [Compound 5-486]: 6.04.

For `CNc1ccc2c(c1)C(OCc1ccccc1)C(OCc1ccccc1C)C(C)(C)O2` (centres unmarked) [Compound 5-69], the pIC50 was 5.85. The compound `Cc1ccc(C(=O)OC2C(OCc3ccccc3)c3cc(NCc4ccc(F)cc4)ccc3OC2(C)C)cc1` (centres unmarked) [Compound 5-1806] gave a pIC50 of 5.23. The same measure for `COC1c2cc(NCc3ccc(F)cc3)ccc2OC(C)(C)C1OC(=O)c1cccs1` (centres unmarked) [Compound 5-1769]: 5.22; for `CNc1ccc2c(c1)C(OCc1ccccc1)C(OCc1ccccc1)C(C)(C)O2` (centres unmarked) [Compound 5-65]: 5.95. The same measure for `CCOC1c2cc(NCc3ccc(F)cc3)ccc2OC(C)(C)C1OC` (centres unmarked) [Compound 5-476]: 5.87; for `CNc1ccc2c(c1)C(OC)C(OC(=O)c1ccco1)C(C)(C)O2` (centres unmarked) [Compound 5-1490]: 5.52; for `CNc1ccc2c(c1)C(OCCC1CCCCC1)C(OCc1ccc(C)cc1)C(C)(C)O2` (centres unmarked) [Compound 5-104]: 5.40. As for `Cc1ccccc1COC1C(OCCc2ccccc2)c2cc(NCc3ccccc3)ccc2OC1(C)C` (centres unmarked) [Compound 5-309], the figure is 5.54; as for `C#CCOC1C(OCc2ccccc2)c2cc(NC)ccc2OC1(C)C` (centres unmarked) [Compound 5-80], 5.97.

Take `CCOC1c2cc(NCc3ccc(F)cc3)ccc2OC(C)(C)C1OCc1ccc(F)cc1` (centres unmarked) [Compound 5-466]: the pIC50 was 5.92. `Cc1ccccc1COC1C(OCc2ccccc2)c2cc(NCc3ccccc3)ccc2OC1(C)C` (centres unmarked) [Compound 5-293] showed a negative-log IC50 (pIC50) of 5.43. As for `CCCCOC1c2cc(NCc3ccc(F)cc3)ccc2OC(C)(C)C1OC(=O)c1ccc(OC)cc1` (centres unmarked) [Compound 5-1797], the figure is 5.45; as for `C=CCOC1C(OC(C)C)c2cc(NCc3ccc(F)cc3)ccc2OC1(C)C` (centres unmarked) [Compound 5-495], 5.69. As for `CCOC1c2cc(NCc3ccc(F)cc3)ccc2OC(C)(C)C1OCc1ccc(C(C)(C)C)cc1` (centres unmarked) [Compound 5-467], the figure is 5.44; as for `COC1c2cc(NCc3ccc(C)cc3)ccc2OC(C)(C)C1OC(=O)c1cccs1` (centres unmarked) [Compound 5-1839], 5.97; as for `C#CCOC1C(OCCCC)c2cc(NC)ccc2OC1(C)C` (centres unmarked) [Compound 5-64], 5.59.

Consider `CNc1ccc2c(c1)C(OCCC1CCCCC1)C(OCc1cccc(Cl)c1)C(C)(C)O2` (centres unmarked) [Compound 5-103], for which the pIC50 was 5.29.

`CCOC1c2cc(NCc3ccc(F)cc3)ccc2OC(C)(C)C1OCc1ccccc1C` (centres unmarked) [Compound 5-469] showed a pIC50 of 5.36. `COC1c2cc(NCc3ccc(F)cc3)ccc2OC(C)(C)C1OC(=O)c1ccc(F)cc1` (centres unmarked) [Compound 5-1768] had a pIC50 of 5.56. Take `CNc1ccc2c(c1)C(OCc1ccccc1)C(OCc1cccc(Cl)c1)C(C)(C)O2` (centres unmarked) [Compound 5-71]: the pIC50 was 5.77.

Regarding `CC1(C)Oc2ccc(NCc3ccc(F)cc3)cc2C(OCc2ccccc2)C1OC(=O)c1ccco1` (centres unmarked) [Compound 5-1810], the pIC50 is 5.36. `CC1(C)Oc2ccc(NCc3ccc(F)cc3)cc2C(OCc2ccccc2)C1OCc1cccc(Cl)c1` (centres unmarked) [Compound 5-519] showed a negative-log IC50 (pIC50) of 5.34. The same measure for `CC1(C)Oc2ccc(NCc3ccccc3)cc2C(OCc2ccccc2)C1OCc1ccc(F)cc1` (centres unmarked) [Compound 5-290]: 5.52; for `CNc1ccc2c(c1)C(OCc1ccccc1)C(OCc1ccc3ccccc3c1)C(C)(C)O2` (centres unmarked) [Compound 5-74]: 5.44; for `CCCCCOC1C(OCc2ccccc2)c2cc(NC)ccc2OC1(C)C` (centres unmarked) [Compound 5-77]: 5.60.

With `COC1c2cc(NCc3ccc(C)cc3)ccc2OC(C)(C)C1OCc1cccc(F)c1` (centres unmarked) [Compound 5-564], the pIC50 was 5.36. The compound `CCCCOC1c2cc(NC)ccc2OC(C)(C)C1OC(=O)c1ccco1` (centres unmarked) [Compound 5-1520] gave a pIC50 of 5.51.

Turning to `CC1(C)Oc2ccc(NCc3ccccc3)cc2C(OCc2ccccc2)C1OCc1ccccc1` (centres unmarked) [Compound 5-289], the pIC50 was 5.88. As for `CCCCOC1c2cc(NC)ccc2OC(C)(C)C1OCc1ccccc1C` (centres unmarked) [Compound 5-53], the figure is 5.74. The same measure for `CC1(C)Oc2ccc(NCc3ccccc3)cc2C(OCc2ccccc2)C1OCc1cccc(Cl)c1` (centres unmarked) [Compound 5-295]: 5.89.

For the compound `CC1(C)Oc2ccc(NCc3ccccc3)cc2C(OCCc2ccccc2)C1OCc1cc(C(F)F)cc(C(F)(F)F)c1` (centres unmarked) [Compound 5-315], the pIC50 is 5.46. As for `C=CCOC1C(OCc2ccccc2)c2cc(NC)ccc2OC1(C)C` (centres unmarked) [Compound 5-79], the figure is 6.10; as for `COC1c2cc(NCc3ccc(F)cc3)ccc2OC(C)(C)C1OC(=O)c1ccco1` (centres unmarked) [Compound 5-1770], 5.51; as for `C#CCOC1C(OCCCC)c2cc(NCc3ccc(F)cc3)ccc2OC1(C)C` (centres unmarked) [Compound 5-512], 5.44.

`CCNc1ccc2c(c1)C(OC)C(OC(=O)CC(C)(C)C)C(C)(C)O2` (centres unmarked) [Compound 5-1552] showed a pIC50 of 5.27. `Cc1ccc(COC2C(OCc3ccccc3)c3cc(NCc4ccccc4)ccc3OC2(C)C)cc1` (centres unmarked) [Compound 5-296]: the pIC50 is 5.23. As for `CCNc1ccc2c(c1)C(OCC)C(OC(=O)c1cccs1)C(C)(C)O2` (centres unmarked) [Compound 5-1569], the figure is 5.47; as for `C#CCOC1C(OCC)c2cc(NCc3ccc(F)cc3)ccc2OC1(C)C` (centres unmarked) [Compound 5-480], 5.26. The same measure for `CNc1ccc2c(c1)C(OCCC1CCCCC1)C(OCc1ccc(F)cc1)C(C)(C)O2` (centres unmarked) [Compound 5-98]: 5.28. The same measure for `COC1c2cc(NCc3ccc(C)cc3)ccc2OC(C)(C)C1OC(=O)C=C(C)C` (centres unmarked) [Compound 5-1834]: 5.89.
